By IC50 is commonly meant the concentration at which inhibition is half-maximal. High values mean lower potency, low ones higher potency.

The target of test [1] is Metallo-beta-lactamase type 2 (Klebsiella pneumoniae, UniProt C7C422).
The target of test [2] is Metallo-beta-lactamase VIM-1 (Pseudomonas aeruginosa, UniProt A0A0F7KYQ8).

Chain of Metallo-beta-lactamase type 2 (C7C422 whole entry): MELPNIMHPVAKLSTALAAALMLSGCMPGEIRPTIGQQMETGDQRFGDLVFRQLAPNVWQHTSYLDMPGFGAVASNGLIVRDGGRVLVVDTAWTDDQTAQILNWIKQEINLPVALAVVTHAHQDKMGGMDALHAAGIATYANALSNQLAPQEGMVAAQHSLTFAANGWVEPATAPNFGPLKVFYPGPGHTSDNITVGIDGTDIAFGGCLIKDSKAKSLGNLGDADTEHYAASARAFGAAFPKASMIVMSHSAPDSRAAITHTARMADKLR

`COc1ccc(CN(Cc2ccc(OC)cc2)S(=O)(=O)c2c(S(=O)(=O)N[C@@H]3CCN(C(=O)OC(C)(C)C)C3)ccc(I)c2-c2nnn(Cc3ccc(OC)cc3)n2)cc1` [US10544130, Example 72] registered an IC50 in test [1] of 0.02 nM.

Consider `N#Cc1cccc(B(O)O)c1N` [US10544130, Example 11], for which the figures for the half-inhibitory concentration (IC50) in test [2] and in test [1] were 0.05 nM and 0.019 nM, respectively. For `Nc1ncccc1-c1ccc(S(=O)(=O)N[C@H]2C[C@@H]2N)c(S(N)(=O)=O)c1-c1nn[nH]n1` [US10544130, Example 216], the concentration for half-maximal inhibition (IC50) in test [2] worked out at 0.269 nM; in test [1] it was 0.237 nM. In the case of `OB(O)c1cccc2[nH]cnc12` [US10544130, Example 12], half-maximal inhibition in test [2] (IC50) required 0.102 nM. This counts as sub-nanomolar. Regarding `COc1ccc(CN(Cc2ccc(OC)cc2)S(=O)(=O)c2c(S(=O)(=O)NC[C@H](CO)NC(=O)OCc3ccccc3)ccc(I)c2-c2nnn(Cc3ccc(OC)cc3)n2)cc1` [US10544130, Example 80], the IC50 in test [2] came to 0.158 nM. In test [1], `C[N+]1(CCN)CC[C@@H](NS(=O)(=O)c2ccc(-c3cccc4[nH]c(N)nc34)c(-c3nn[nH]n3)c2S(N)(=O)=O)C1` (stereo not given in full) [US10544130, Example 248] came in with a 50% inhibitory concentration (IC50) of 0.011 nM. The compound `COc1ccc(CN(Cc2ccc(OC)cc2)S(=O)(=O)c2c(S(=O)(=O)NC[C@@H](CNC(=O)OC(C)(C)C)NC(=O)OC(C)(C)C)ccc(I)c2-c2nnn(Cc3ccc(OC)cc3)n2)cc1` [US10544130, Example 81] had an IC50 in test [2] of 0.135 nM.

As for `COc1ccc(CN(Cc2ccc(OC)cc2)S(=O)(=O)c2c(S(=O)(=O)N[C@H]3CN(C(=O)OC(C)(C)C)C[C@@H]3NC(=O)OC(C)(C)C)ccc(I)c2-c2nnn(Cc3ccc(OC)cc3)n2)cc1` [US10544130, Example 82], it took 0.049 nM to reach half-maximal inhibition in test [1] (IC50).

Values taken from BindingDB's records for patent US10544130 (Merck Sharp & Dohme Corp., 2020).
